Assay results from PubChem BioAssay (NCI).
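The compound was tested at five concentrations on cells cultured in 96-well plates, with a 48-hour exposure period. TGI: concentration producing complete growth inhibition.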

Experiments:
Assay in all cases: NCI-60 cell line screen, 48 h
[1] = test system: OVCAR-4 ovarian
[2] = test system: SF-268 CNS
[3] = test system: HOP-92 NSCLC
[4] = test system: IGROV1 ovarian
[5] = test system: SF-539 CNS
[6] = test system: LOX IMVI melanoma
[7] = test system: SK-MEL-28 melanoma
[8] = test system: SNB-19 CNS
[9] = test system: ACHN renal
[10] = test system: HS 578T breast
[11] = test system: HCT-116 colon
[12] = test system: SK-OV-3 ovarian
[13] = test system: UACC-257 melanoma
[14] = test system: KM12 colon
[15] = test system: BT-549 breast
[16] = test system: 786-0 renal
[17] = test system: OVCAR-3 ovarian
[18] = test system: NCI/ADR-RES ovarian
[19] = test system: DU-145 prostate
[20] = test system: SNB-75 CNS

Row | SMILES | TGI [1] [µM] | TGI [2] [µM] | TGI [3] [µM] | TGI [4] [µM] | TGI [5] [µM] | TGI [6] [µM] | TGI [7] [µM] | TGI [8] [µM] | TGI [9] [µM] | TGI [10] [µM] | TGI [11] [µM] | TGI [12] [µM] | TGI [13] [µM] | TGI [14] [µM] | TGI [15] [µM] | TGI [16] [µM] | TGI [17] [µM] | TGI [18] [µM] | TGI [19] [µM] | TGI [20] [µM]
1 | Oc1[nH]c2ccccc2c1C1=Nc2ccccc2/C1=N\OCCOC1OCC(O)C(O)C1O (stereo not given) | > 100 | > 100 | > 100 | > 100 | > 100 | > 100 | > 100 | > 100 | > 100 | > 100 | > 100 | 7.99 | > 100 | > 100 | > 100 | > 100 | > 100 | > 100 | > 100 | > 100
2 | CC(C)=NOC(=O)CNC(=O)C(Cc1ccccc1)NC(=O)C(C)NC(=O)OC(C)(C)C (stereo not given) | > 100 | > 100 | > 100 | > 100 | > 100 | > 100 | > 100 | > 100 | > 100 | > 100 | > 100 | > 100 | > 100 | > 100 | > 100 | > 100 | > 100 | > 100 | > 100 | > 100
3 | O=C(Cn1cc(Br)c(=O)[nH]c1=O)c1ccc(-c2ccccc2)cc1 | > 100 | 15.8 | 82.5 | > 33.1 | > 19.8 | > 27.4 | > 19.9 | 13.2 | > 100 | > 100 | > 100 | > 100 | > 100 | > 26.3 | > 23.8 | > 100 | > 100 | > 100 | > 30.7 | 6.51
4 | CCCCCCCCC/C=C1/CC(CO)(COC(=O)CC(C(C)C)C(C)C)OC1=O (stereo not given) | 28.4 | 25 | 15.8 | 29.1 | 24.2 | 24.7 | 31.8 | 23.9 | 18.6 | 3.91 | 26.6 | 31.5 | 26 | 23.1 | 27.7 | 16.1 | 27.6 | 28.1 | 25.3 | 18.9
5 | C[C@@H](C[C@H]1OC(C)(C)O[C@@H]1C(C)(C)O)[C@H]1CC=C2[C@]3(C)[C@H](O)C[C@H]4C(C)(C)[C@H](O)CC[C@]4(C)[C@H]3CC[C@]21C | 26.2 | 31.4 | 13.6 | 21.1 | 17.2 | 17.3 | 18.6 | 20.7 | 15.8 | 16.6 | 16 | 20.6 | 20.4 | 16 | 22.4 | 18.5 | 15.4 | 21.9 | 28.7 | 19.8
6 | CC(Oc1ccc(Oc2cnc3ccc(Cl)cc3n2)cc1)C(=O)O (stereo not given) | > 100 | > 100 | > 100 | > 100 | > 100 | > 100 | > 100 | > 100 | > 100 | > 100 | > 100 | > 100 | > 100 | > 100 | > 100 | > 100 | > 100 | > 100 | > 100 | > 100
7 | Clc1ccc(-c2cc(-c3cc4cc(Br)ccc4nc3Cl)on2)cc1 | > 50 | 28.6 | > 50 | > 50 | 17.5 | 21.4 | 29.3 | > 50 | > 50 | > 50 | 30.7 | > 50 | 46 | > 50 | > 50 | > 50 | 30.7 | 37.9 | > 50 | > 50
8 | O=C1NC(Nc2ccccc2)=N/C1=C\c1c(Cl)cccc1Cl | 25.5 | > 100 | 39.9 | 62.4 | 53.2 | > 100 | > 100 | > 100 | > 100 | 95 | > 100 | 49.7 | 78.1 | > 100 | > 100 | 29.6 | > 100 | > 100 | 76.3 | 42.3
9 | CC(O)c1cc2c(s1)C(=O)c1c(C(C)O)csc1C2=O (stereo not given) | 0.524 | 1.32 | 0.762 | 0.468 | 0.449 | 1.53 | 0.466 | 1.08 | 1.38 | 0.804 | 1.07 | 1.76 | 0.216 | 1.08 | 0.378 | 2.08 | 0.135 | 0.593 | 0.242 | 0.566
10 | CN=C(Nc1ccc(OC)c2ccccc12)SC | > 10 | > 10 | > 10 | > 10 | > 10 | > 10 | > 10 | > 10 | > 10 | > 10 | > 10 | > 10 | > 10 | > 10 | > 10 | > 10 | > 10 | > 10 | > 10 | > 10
11 | COc1ccc(/C=C2\C[C@H]3[C@@H]4CCC5=C/C(=N/O)CC[C@]5(C)[C@H]4CC[C@]3(C)\C2=N\O)cc1 | > 100 | > 100 | > 100 | > 100 |  | > 100 | > 100 | > 100 | 98.3 | > 100 | > 100 | > 100 | > 100 | > 100 | 53.7 | > 100 | > 100 | > 100 | > 100 | > 100
12 | CC1(C)CC(=O)c2c(nc3c(ccc4ccccc43)c2-c2ccc(NC(=O)CCC(=O)Nc3ccc(-c4c5c(nc6c4ccc4ccccc46)CC(C)(C)CC5=O)cc3)cc2)C1 |  | > 100 | > 100 | > 100 | > 100 | > 100 | > 100 | > 100 | > 100 | > 100 | > 100 | > 100 | > 100 | > 100 | > 100 | > 100 | > 100 | > 100 | > 100 | > 100
13 | C[C@H]1C2Cc3cc(O)ccc3[C@@]1(C)CCN2CCc1ccc(N)cc1 | > 100 | 52.6 | 73.7 | 66.3 | 31.3 | 28.2 | 34.4 | > 100 | > 100 | > 100 | 31.2 | > 100 | 36.5 | 34.3 | > 100 | 30.7 | 47 | 63.2 | > 100 | > 100
14 | CCC(=O)N/S(=N/S(=O)(=O)c1ccccc1)C(Cl)(Cl)Cl (stereo not given) | > 100 | > 100 | > 100 | > 100 | > 100 | > 100 | > 100 | > 100 | > 100 | > 100 | > 100 | > 100 | > 100 | > 100 | > 100 | > 100 | > 100 | > 100 | > 100 | > 100
15 | Cc1ccc(-c2c(-c3ccccc3)[nH]c(C)c2C(=O)ONC(=O)c2ccccc2)cc1 | 9.48 | 7.31 | 4.09 | 3.15 | 8.06 | 4.45 | 27.1 | 20.1 | 4.15 | 5.39 | 7.27 | 30 | 27.3 | 26.4 | 14.1 | 12.6 | 17.4 | 18.3 | 3.82 | 7.21
16 | COc1ccc2oc(S(=O)(=O)N3CC(CCl)c4ccc(N)cc43)cc2c1 (stereo not given) | > 100 | > 100 | > 64.7 | > 34.1 | > 41.4 | > 53.1 | > 100 | > 100 | > 94.6 | > 100 | > 8.26 | > 100 | > 100 | 6.02 | > 55.8 | > 10.6 | > 100 | > 72 | 0.515 | > 100
17 | Cc1ccc(O)c(C2=CC3=NNC(=O)C3C(c3cccc(Cl)c3)C2)c1 (stereo not given) | 44.3 | > 100 | 96.1 | > 100 | > 100 | 49.1 | > 100 | > 100 | > 100 | > 100 | > 100 | > 100 | > 100 | 55.1 | 78.7 | > 100 | 84.1 | > 100 | > 100 | 76.2
18 | COc1cc(/C=C2\C[C@H]3[C@@H]4CCC5=CC(=O)CC[C@]5(C)[C@H]4CC[C@]3(C)C2=O)cc(OC)c1OC | > 59.7 | > 100 | > 100 | > 100 | > 100 | > 100 | > 100 | > 100 | > 100 | > 100 | > 40.8 | > 100 | > 84.2 | > 37.2 | > 95.4 | > 100 | > 49 | > 100 | > 100 | > 89.4
19 | O=C1CCCC/C1=C\c1ccc([N+](=O)[O-])cc1 | 53.1 | > 100 | 52.1 | 32.1 | 43.3 | 3.74 | 23.5 | 32.5 | 68.1 | 70.8 | 25.7 | 30.9 | 38.5 | 38.4 | 59.3 | 28.1 | 83.5 | 57.1 | > 100 | 46
20 | C=C1C[C@@H](O)[C@@H](Br)C(C)(C)[C@@]12C=CC(=O)CC2 | > 100 | > 100 | > 100 | > 48.3 | > 100 | > 100 | > 100 | > 100 | > 100 | > 100 | > 100 | > 100 | > 100 | 5.31 | > 100 | > 100 | > 100 | > 100 | > 100 | > 100
21 | Cc1ccc(S(=O)C[C@](NC(=O)OCc2ccccc2)(Sc2ccccc2)C(F)F)cc1 (stereo not given in full) | 41.4 | 63.4 | 42.9 | 22.7 |  | 19.4 | 38.1 | 31.3 | 45.5 | 94.3 | 34.8 | 36 | 31.5 | 31.9 | 50.9 | 29.2 | 66.1 | 54.6 | 45.6 | 28.3
22 | Nc1ccc(-c2nc3ccc(F)cc3s2)cc1Cl | > 100 | > 100 | > 100 | > 100 | > 100 | > 100 | > 100 | > 100 | > 100 | > 100 |  | > 100 | > 100 | > 100 | > 100 | > 100 | > 100 | > 100 | > 100 | > 59.9
23 | COc1ccc(-c2oc3cc(OC)c(OC)c(O)c3c(=O)c2OC)cc1 | > 100 | 98.4 | 33.8 | 56.8 | > 100 | > 100 | > 100 | > 100 | > 100 | 72.3 | > 100 | > 100 | > 100 | > 100 | 42 | 68.2 |  | > 100 | > 100 | 37.4
